Test results: patent US9266847B2, “Compounds, probes, and methods of synthesis and methods of imaging COX-2-associated diseases” (Vanderbilt University, priority 2012, dated 2016)

Biological target: T1, ovine COX2 (Ovis aries, UniProt P79208)
T1 sequence (P79208 17-603): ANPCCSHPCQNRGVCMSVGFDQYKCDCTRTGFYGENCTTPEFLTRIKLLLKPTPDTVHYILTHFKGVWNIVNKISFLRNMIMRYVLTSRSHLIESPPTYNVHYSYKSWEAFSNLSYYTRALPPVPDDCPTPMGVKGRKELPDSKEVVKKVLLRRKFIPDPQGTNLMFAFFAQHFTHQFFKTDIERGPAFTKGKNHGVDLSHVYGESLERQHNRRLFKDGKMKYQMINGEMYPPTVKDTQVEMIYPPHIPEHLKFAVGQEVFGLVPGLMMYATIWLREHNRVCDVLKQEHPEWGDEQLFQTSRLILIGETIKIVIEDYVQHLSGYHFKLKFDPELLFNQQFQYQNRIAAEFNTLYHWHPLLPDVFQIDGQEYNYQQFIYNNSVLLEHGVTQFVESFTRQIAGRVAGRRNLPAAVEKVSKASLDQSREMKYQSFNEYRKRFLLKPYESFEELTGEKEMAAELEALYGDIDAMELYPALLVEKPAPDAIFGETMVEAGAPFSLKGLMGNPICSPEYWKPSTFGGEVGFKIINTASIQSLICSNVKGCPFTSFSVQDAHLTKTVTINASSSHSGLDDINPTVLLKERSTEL
Assay: IC50 assay, Cayman colorimetric COX inhibitor screening assay kit
Settings: FIG. 2, 10 duplicate concentrations
Method: Various concentrations of the ^19F-COX2 compound ranging from 0.1 μM to 0.3 nM were dispensed into designated wells within a 96-well microtiter plate at a final volume of 220 μL per well. Each well contained an assay buffer, heme, and ovine COX2 provided in Cayman's colorimetric COX inhibitor screening assay kit. […] Five minutes after incubation of all assay components at 25° C., an arachidonic acid substrate at a final concentration of 100 μM and the colorimetric co-substrate N,N,N′,N′-tetramethyl-p-phenylenediamine were added to each well. The plate was then incubated at 25° C. for an additional 5 min before reading the absorbance at 590 nm using a plate reader. Absorbance of the duplicate assay of each well was averaged and subtracted from the 100% initial activity sample, after which it was divided by the 100% initial activity sample and multiplied by 100 to arrive at the percentage of inhibition.

## Cc1csc(Cc2c3cccccc-3c(C(=O)c3ccc(F)cc3)c2C)n1 [^19F-COX2]
  Hill slope of the inhibition curve: −0.62
